Where two headings read alike, the source gives them in different places.
Legend:
HIV-1 wild-type strain = assay: General antiviral assay, cell-based virus replication in MT4-LTR-EGFP cells, wild-type strain; settings: wild-type strain IIIB, MT4-LTR-EGFP cells
How it was run: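 HIV LTR-driven EGFP reporter MT4 cells (150,000 cells/ml) infected at MOI 0.0025 with or without inhibitor at various concentrations. Read-out either GFP fluorescence on day 3 post-infection or resazurin cell viability on day 4.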

HIV-1 IIIB = assay: 50% HS-Rezazurin: antiviral assay in the presence of 50% human serum, MT-4 cells, resazurin cell viability; format: cell-based
How it was run: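 MT-4 cells infected with HIV-1 IIIB (MOI 0.001 to 0.01 CCID50/cell) for 1 h, washed, then plated onto serial compound dilutions in 50% human serum (10% FCS alternative). After 4 days, EC50 derived from resazurin cell viability.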

[1] = test system: HIV-1 Strain A (M046I, I084V); assay: microbe, parasite or virus in culture; format: cell-based; settings: clinical isolate Strain A; read-out: A EC50
How it was run: (§1)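 MT4 cells stably carrying an HIV LTR-driven EGFP reporter (150,000 cells/ml) were infected at MOI 0.0025 with or without inhibitor dilutions. Replication was read either as GFP fluorescence on day 3 post-infection or as cell viability by resazurin on day 4.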

[2] = test system: HIV-1 Strain C (G048G/V, V082A); assay: microbe, parasite or virus in culture; format: cell-based; settings: clinical isolate Strain C; read-out: C EC50
How it was run: as §1

[3] = test system: HIV-1 Strain B (M046I, I050V); assay: microbe, parasite or virus in culture; format: cell-based; settings: clinical isolate Strain B; read-out: B EC50
How it was run: as §1

mock-infected MT4 cells = assay: General toxicity assay on mock-infected MT4 cells with CMV-EGFP reporter (CC50); format: cell-based
[4] = mock-infected MT4 cells with CMV-EGFP reporter, read-out: TOX-MT4CMV (CC50)
[5] = MT4LTR cells, read-out: TOX-MT4LTR (CC50)

SMILES	EC50 (HIV-1 wild-type strain)	EC50 (HIV-1 IIIB)	EC50 [1]	EC50 [2]	EC50 [3]	CC50 (mock-infected MT4 cells; [4])	CC50 (mock-infected MT4 cells; [5])	CC50 (mock-infected MT4 cells; read-out: TOX-MT4CMV (CC50))
COC(=O)NC(C(=O)NC(Cc1ccc(-c2ccc(OC)nc2)cc1)C(O)CC(Cc1cccc(Cl)c1)C(=O)NC1c2ccccc2OCC1O)C(C)(C)C (stereo not drawn) [Compound 3]	2.6 nM	13.6 nM	2.3 nM	2.4 nM	3.5 nM	> 32000 nM		
COC(=O)NC(C(=O)NC(Cc1ccc(-c2ccc(N(C)C)nc2)cc1)C(O)CC(Cc1ccccc1F)C(=O)NC1c2ccccc2OCC1O)C(C)(C)C (stereo not drawn) [Compound 7]	1.6 nM	10.4 nM	1.5 nM	0.8 nM	0.9 nM	> 32000 nM	> 49000 nM	
COC(=O)NC(C(=O)NC(Cc1ccc(-c2ccc(OC)nc2)cc1)C(O)CC(Cc1ccccc1F)C(=O)NC1CCCCC1O)C(C)(C)C (stereo not drawn) [Compound 100]	1.8 nM	5.9 nM	1.8 nM	0.8 nM	0.7 nM		> 32000 nM	
COC(=O)N[C@H](C(=O)N[C@@H](Cc1ccc(-c2ccc(OC)nc2)cc1)[C@@H](O)C[C@@H](Cc1ccccc1Cl)C(=O)N[C@H]1[C@H](C)CCC[C@H]1O)C(C)(C)C [Compound 91]	1.1 nM	3.2 nM	2.6 nM	1 nM	0.7 nM	17000 nM	16000 nM	
COC(=O)N[C@H](C(=O)N[C@@H](Cc1ccc(-c2ccc(OC)nc2)cc1)[C@@H](O)C[C@@H](Cc1ccccc1F)C(=O)N[C@H]1c2cc(Cl)cc(F)c2OC[C@H]1O)C(C)(C)C [Compound 61]	4.1 nM	16.1 nM	3 nM	1.6 nM	2.1 nM		> 32000 nM	
COC(=O)N[C@H](C(=O)N[C@@H](Cc1ccc(-c2ccc(N(C)C)nc2)cc1)[C@@H](O)C[C@@H](Cc1ccccc1F)C(=O)N[C@H]1c2cc(Cl)cc(F)c2OC[C@H]1O)C(C)(C)C [Compound 60]	4.1 nM	25.2 nM	2.6 nM	1.2 nM	1.9 nM		10000 nM	
COC(=O)NC(C(=O)NC(Cc1ccc(-c2ccc(N(C)C)nc2)cc1)C(O)CC(Cc1cccc(Cl)c1)C(=O)NC1c2cc(Cl)ccc2OCC1O)C(C)(C)C (stereo not drawn) [Compound 5]	4.7 nM	28.6 nM	5.4 nM	5.1 nM	4.4 nM	> 32000 nM		
COC(=O)N[C@H](C(=O)N[C@@H](Cc1ccc(-c2cnc(N(C)C)nc2)cc1)[C@@H](O)C[C@@H](Cc1cccc(OC(F)(F)F)c1)C(=O)N[C@H]1c2cc(Cl)ccc2OC[C@H]1O)C(C)(C)C [Compound 49]	4.1 nM	19 nM	5.2 nM	2.9 nM	3.5 nM		> 32000 nM	
COC(=O)N[C@H](C(=O)N[C@@H](Cc1ccc(-c2ccc(N(C)C)nc2)cc1)[C@@H](O)C[C@@H](Cc1ccccc1F)C(=O)N[C@H]1c2cccc(F)c2OC[C@H]1O)C(C)(C)C [Compound 51]	3 nM	7 nM	2.3 nM	1.3 nM	1.5 nM		> 32000 nM	
COC(=O)NC(C(=O)NC(Cc1ccc(-c2ccc(OC)nc2)cc1)C(O)CC(Cc1ccccc1F)C(=O)NC1c2cc(C)cc(F)c2OCC1O)C(C)(C)C (stereo not drawn) [Compound 101]	2.8 nM	9.8 nM	2.5 nM	1.7 nM	2.4 nM		> 32000 nM	
COc1ccc(-c2ccc(C[C@H](NC(=O)O[C@H]3CO[C@H]4OCC[C@H]43)[C@@H](O)C[C@@H](Cc3cccc(OC(F)(F)F)c3)C(=O)N[C@H]3c4cc(Cl)ccc4OC[C@H]3O)cc2)cn1 [Compound 73]	3.3 nM	9.2 nM	3.7 nM	1.9 nM	4.1 nM		> 32000 nM	
CN(C)c1ccc(-c2ccc(C[C@H](NC(=O)[C@@H](NC(=O)C3(C#N)CC3)C(C)(C)C)[C@@H](O)C[C@@H](Cc3ccccc3F)C(=O)N[C@H]3c4cc(F)ccc4OC[C@H]3O)cc2)cn1 [Compound 35]	2.1 nM	8.4 nM	4 nM	2 nM	2.2 nM		> 32000 nM	> 32000 nM
CCc1ncc(-c2ccc(CC(NC(=O)C(NC(=O)OC)C(C)(C)C)C(O)CC(Cc3ccccc3F)C(=O)NC3c4cc(Cl)ccc4OCC3O)cc2)s1 (stereo not drawn) [Compound 14]	3 nM	24.6 nM	3.5 nM	1.3 nM	2.1 nM	> 32000 nM		
COC(=O)NC(C(=O)NC(Cc1ccc(-c2cnc(N(C)C)cn2)cc1)C(O)CC(Cc1ccccc1F)C(=O)NC1c2cc(Cl)ccc2OCC1O)C(C)(C)C (stereo not drawn) [Compound 22]	3.8 nM	26.4 nM	3.5 nM	2.1 nM	2.6 nM	> 32000 nM		
COC(=O)NC(C(=O)NC(Cc1ccc(-c2ccc(OC)nc2)cc1)C(O)CC(Cc1ccccc1F)C(=O)NC1c2cc(F)cc(C)c2OCC1O)C(C)(C)C (stereo not drawn) [Compound 102]	2.3 nM	6.8 nM	5.4 nM	1.5 nM	3.3 nM		> 32000 nM	
COC(=O)NC(C(=O)NC(Cc1ccc(-c2cnc(OC)cn2)cc1)C(O)CC(Cc1ccccc1F)C(=O)NC1c2cc(Cl)ccc2OCC1O)C(C)(C)C (stereo not drawn) [Compound 23]	3 nM	12.3 nM	3.7 nM	2 nM	2.4 nM	19000 nM		
COC(=O)N[C@H](C(=O)N[C@@H](Cc1ccc(-c2ccc(OC)nc2)cc1)[C@@H](O)C[C@@H](Cc1ccccc1F)C(=O)N[C@H]1c2cc(C)ccc2OC[C@H]1O)C(C)(C)C [Compound 66]	0.9 nM	7.7 nM	0.8 nM	0.5 nM	0.8 nM		> 32000 nM	
COC(=O)N[C@H](C(=O)N[C@@H](Cc1ccc(-c2cnc(N(C)C)nc2)cc1)[C@@H](O)C[C@@H](Cc1cccc(F)c1)C(=O)N[C@H]1c2cc(F)ccc2OC[C@H]1O)C(C)(C)C [Compound 62]	3.2 nM	16.3 nM	2.2 nM	0.9 nM	1.5 nM		> 32000 nM	
CCc1ncc(-c2ccc(C[C@H](NC(=O)[C@@H](NC(=O)OC)C(C)(C)C)[C@@H](O)C[C@@H](Cc3ccccc3F)C(=O)N[C@H](C(=O)NC)C(C)(C)C)cc2)s1 [Compound 84]	6.4 nM	28 nM	4.7 nM	2.4 nM	3.3 nM	> 32000 nM		
COC(=O)N[C@H](C(=O)N[C@@H](Cc1ccc(-c2ccc(N(C)C)nc2)cc1)[C@@H](O)C[C@@H](Cc1ccccc1F)C(=O)N[C@H]1[C@H](C)CC[C@H]1O)C(C)(C)C [Compound 87]	4.7 nM	14.4 nM	8 nM	5.4 nM	1.9 nM	> 32000 nM		
COc1ccc(-c2ccc(C[C@H](NC(=O)O[C@H]3CO[C@H]4OCC[C@H]43)[C@@H](O)C[C@@H](Cc3ccccc3Cl)C(=O)N[C@H]3c4cc(Cl)ccc4OC[C@H]3O)cc2)cn1 [Compound 78]	2.1 nM	10.6 nM	1.9 nM	0.9 nM	1.4 nM		> 32000 nM	
